Data on 27 compounds can be found in patent publication US20100167931A1, “HETEROCYCLICALLY SUBSTITUTED HETEROCYCLYLCARBOXYLIC ACID DERIVATIVES” (Bayer CropScience AG, priority 2007, published 2010).

Each structure is given as a SMILES string. Bounds are passed on as bounds.

The subject of the first series is Boophilus microplus. As to the kind of experiment: Boophilus microplus test (injection). The format is in vivo. The conditions noted are these: application rate of 20 μg/animal. Here is the method:
Boophilus microplus Test (Injection) Solvent: dimethyl sulphoxide To produce a suitable preparation of active compound, 1 part by weight of active compound is mixed with the stated amount of solvent, and the concentrate is diluted with solvent to the desired concentration. The solution of active compound is injected into the abdomen (Boophilus microplus), the animals are transferred into dishes and stored in a climatized room. After the desired period of time, the effect in % is determined. 100% means that none of the ticks has laid any fertile eggs.
Take `CC(C)C(C)Nc1c(-n2nc(C(F)(F)F)cc2C(F)(F)F)c(Cl)nc2c(C(=O)NS(C)(=O)=O)cnn12` (centres unmarked) [Example I-4]: the “effect (no fertile eggs laid)” value is on record as no less than 80%.

In the next series the test system is green peach aphid (Myzus persicae). As to the kind of experiment: Activity increase by ammonium/phosphonium salts in combination with penetrants, Myzus persicae test. In kind it is in vivo. The conditions noted are these: 20 ppm, +AS 1000 ppm, bell pepper plants. On the procedure: Activity Increase by Ammonium/Phosphonium Salts in Combination with Penetrants Myzus persicae Test
Solvent: 7 parts by weight of dimethylformamide
Emulsifier: 2 parts by weight of alkylaryl polyglycol ether
To produce a suitable preparation of active compound, 1 part by weight of active compound is mixed with the stated amounts of solvent and emulsifier, and the concentrate is diluted with emulsifier-containing water to the desired concentration. If the addition of ammonium salts or ammonium salts and penetrants is required, these are in each case added in a concentration of 1000 ppm after dilution to the finished solution of the preparation.
Bell pepper plants (Capsicum annuum) which are heavily infested by the green peach aphid (Myzus persicaei) are treated by being sprayed with the active compound preparation at the desired concentration.
After the desired period of time, the kill in % is determined. 100% means that all animals have been killed; 0% means that none of the animals have been killed.
On to `CC(C)Nc1c(-c2ncccc2Cl)c(Cl)nc2c(C(=O)NS(C)(=O)=O)cnn12` [Example I-32], for which the “Kill (%) after 6 d +AS 1000 ppm” value was 60%.

Still in this series, the particulars now being: 20 ppm, +AS + RME in each case 1000 ppm, bell pepper plants.
Turning to `CC(C)Nc1c(-c2ncccc2Cl)c(Cl)nc2c(C(=O)NS(C)(=O)=O)cnn12` [Example I-32], the “Kill (%) after 6 d +AS + RME in each case 1000 ppm” value was 90%.

The series is the same for the next values; noted with them: 20 ppm, active compound alone, bell pepper plants.
Take `CC(C)Nc1c(-c2ncccc2Cl)c(Cl)nc2c(C(=O)NS(C)(=O)=O)cnn12` [Example I-32]: the “Kill (%) after 6 d” value is 10%.

Tested on in a further series: not listed separately
As to the kind of experiment: logP determination by HPLC on reverse-phase column (EEC Directive 79/831 Annex V.A8). In kind it is physicochemical. The conditions noted are these: HPLC reverse-phase C 18, 43° C., pH 2.7, 0.1% aqueous formic acid and acetonitrile. On the procedure:
The logP values given in the tables and preparation examples above were determined in accordance with EEC Directive 79/831 Annex V.A8 by HPLC (High Performance Liquid Chromatography) on a reverse-phase column (C 18). Temperature: 43° C. The determination was carried out by LC-MS at pH 2.7 using 0.1% aqueous formic acid and acetonitrile (containing 0.1% formic acid) as mobile phases; linear gradient from 10% acetonitrile to 95% acetonitrile. Calibration was carried out using unbranched alkan-2-ones (having 3 to 16 carbon atoms) with known logP values (determination of the logP values by the retention times using linear interpolation between two successive alkanones).
Turning to `CC(C)Nc1c(-n2nc(C(F)(F)F)cc2C(F)(F)F)c(Cl)nc2c(C(=O)O)cnn12` [Example I-20], the logP entry is “m/z 457, logP 3.11”.
`O=C(O)c1cnn2c(NCC3CC3)c(-n3nc(C(F)(F)F)cc3C(F)(F)F)c(Cl)nc12` [Example I-23]: the logP entry was “m/z 469, logP 3.22”.
The same measure, in the same setting: to `CC(C)C(C)Nc1c(-n2cc(Cl)cn2)c(Cl)nc2c(C(=O)O)cnn12` (centres unmarked) [Example I-25] belongs “m/z 383, logP 2.81”; to `Cc1nn(C)c(-c2c(Cl)nc3c(C(=O)O)cnn3c2NC(C)C)c1Cl` [Example I-57], “logP 2.20”.

Staying with this series, now noted: intermediates of the formula (IV); HPLC reverse-phase C18, 43° C., pH 2.7 (0.1% aqueous formic acid/acetonitrile).
`COC(=O)c1cnn2c(O)c(-n3nc(C(F)(F)F)cc3C(F)(F)F)c(O)nc12` [IV-3]: the logP entry is “m/z 412, logP 1.37”.
Still for that read-out and setting: the same measure for `COC(=O)c1cnn2c(O)c(-n3cc(Cl)cn3)c(O)nc12` [IV-4]: “m/z 310, logP 0.43”.
With `COC(=O)c1cnn2c(O)c(-c3nc(C)sc3C)c(O)nc12` [IV-5], the logP entry was “m/z 321, logP 0.43”.
Still for that read-out and setting: to `COC(=O)c1cnn2c(O)c(-c3cncc(Br)c3)c(O)nc12` [IV-15] belongs “logP 0.78”; to `COC(=O)c1cnn2c(O)c(-c3c(Cl)c(C)nn3C)c(O)nc12` [IV-17], “logP 0.59”; to `COC(=O)c1cnn2c(O)c(-c3ncc(C(F)(F)F)cc3F)c(O)nc12` [IV-19], “logP 0.91”.
The same measure, in the same setting: the same measure for `COC(=O)c1cnn2c(O)c(-c3ncccc3C(F)(F)F)c(O)nc12` [IV-20]: “logP 0.65”.

The series is the same for the next values; noted with them: intermediates of the formula (V); HPLC reverse-phase C18, 43° C., pH 2.7 (0.1% aqueous formic acid/acetonitrile).
In the case of `COC(=O)c1cnn2c(Cl)c(-n3nc(C(F)(F)F)cc3C(F)(F)F)c(Cl)nc12` [V-3], the logP result was “m/z 448, logP 3.64”.
With `COC(=O)c1cnn2c(Cl)c(-n3cc(Cl)cn3)c(Cl)nc12` [V-5], the logP result was “m/z 346, logP 2.50”.
For the compound `COC(=O)c1cnn2c(Cl)c(-c3c(C)nn(C)c3C)c(Cl)nc12` [V-8], the logP entry was “m/z 354, logP 1.88”.
For `COC(=O)c1cnn2c(Cl)c(-c3c(Cl)c(C)nn3C)c(Cl)nc12` [V-18], the logP result is on record as “logP 2.67”.
In the case of `COC(=O)c1cnn2c(Cl)c(-c3ncccc3C(F)(F)F)c(Cl)nc12` [V-21], the logP result is reported as “logP 2.61”.

Staying with this series, now noted: intermediates of the formula (VI); HPLC reverse-phase C18, 43° C., pH 2.7 (0.1% aqueous formic acid/acetonitrile).
Consider `COC(=O)c1cnn2c(NC(C)C(C)C)c(-n3cc(Cl)cn3)c(Cl)nc12` (centres unmarked) [VI-9], for which the logP entry is recorded as “m/z 397, logP 3.59”.
`COC(=O)c1cnn2c(NC(C)C)c(-c3ncc(F)cc3F)c(Cl)nc12` [VI-11]: the logP entry is on record as “m/z 382, logP 2.76”.
Turning to `COC(=O)c1cnn2c(NC(C)C(F)(F)F)c(-c3c(C)nn(C)c3C)c(Cl)nc12` (centres unmarked) [VI-12], the logP entry was “m/z 431, logP 2.54”.

The series is the same for the next values; noted with them: reverse-phase C18 HPLC column; HPLC reverse-phase C 18, 43° C., pH 2.7, 0.1% aqueous formic acid and acetonitrile.
`N#CC(C#N)c1c(Cl)cncc1Cl` [2-(3,5-dichloropyridin-4-yl)malononitrile] had a chromatographic logP of 0.9.
For `COC(=O)c1cnn2c(Cl)c(-n3nc(C)cc3C)c(Cl)nc12` [Example V-1, Methyl 5,7-dichloro-6-(3,5-dimethyl-1H-pyrazol-1-yl)pyrazolo[1,5-a]pyrimidine-3-carboxylate], the chromatographic logP was determined as 2.16.
`COC(=O)c1cnn2c(Cl)c(-c3ncc(Cl)cc3Cl)c(Cl)nc12` [Example V-2, Methyl 5,7-dichloro-6-(3,5-dichloropyridin-2-yl)pyrazolo[1,5-a]pyrimidine-3-carboxylate]: the chromatographic logP came out at 3.12.
Still for that read-out and setting: to `COC(=O)c1cnn2c(O)c(-n3nc(C)cc3C)c(O)nc12` [IV-1, Methyl 6-(3,5-dimethyl-1H-pyrazol-1-yl)-5,7-dihydroxypyrazolo[1,5-a]pyrimidine-3-carboxylate] belongs 0.41; to `COC(=O)c1cnn2c(O)c(-c3ncc(Cl)cc3Cl)c(O)nc12` [IV-2, Methyl 6-(3,5-dichloropyridin-2-yl)-5,7-dihydroxypyrazolo[1,5-a]pyrimidine-3-carboxylate], 0.74; to `COC(=O)c1cnn2c(NCC(F)(F)F)c(-n3nc(C(F)(F)F)cc3C(F)(F)F)c(Cl)nc12` [VI-2, Methyl 6-[3,5-bis(trifluoromethyl)-1H-pyrazol-1-yl]-5-chloro-7-[(2,2,2-trifluoroethyl)amino]-pyrazolo[1,5-a]pyrimidine-3-carboxylate], 3.79.

One may read the chromatographic logP as lipophilicity estimated from chromatographic retention. Read a low chromatographic logP as lower lipophilicity.
